Test results published in ChEMBL document CHEMBL4184199, “Structural optimization of N1-aryl-benzimidazoles for the discovery of new non-nucleoside reverse transcriptase inhibitors active against wild-type and mutant HIV-1 strains” (Bioorg Med Chem, 2018).
Active and inactive are the calls of the source. The calls are words filed in the database; no cut-off is given here.

Tests used:
[1] = Cytotoxicity against human MT4 cells after 5 days by MTT assay; format: cell-based
[2] = system: Human immunodeficiency virus 2; experiment: Antiviral activity against HIV2 ROD infected in human MT4 cells assessed as reduction in virus-induced cytopathic effect after 5 days by MTT assay; format: functional, organism-based; conditions: ISOLATE ROD
[3] = molecular target: Human immunodeficiency virus type 1 reverse transcriptase (Human immunodeficiency virus 1, UniProt Q72547); experiment: Inhibition of recombinant wild-type HIV-1 3B reverse transcriptase p66/p51 RNA-dependent DNA polymerase activity expressed in Escherichia coli JM109 assessed as reduction in dTTP incorporation using poly(rA)/oligo(dT)16 as template/primer after 40 mins by PicoGreen dye based spectrofluorometric analysis
[4] = system: Human immunodeficiency virus 1; experiment: Antiviral activity against HIV1 3B infected in human MT4 cells assessed as reduction in virus-induced cytopathic effect after 5 days by MTT assay; format: functional, organism-based; conditions: Human immunodeficiency virus 1, 3B, MT4, 120 h
[5] = Selectivity index, ratio of CC50 for human MT4 cells to EC50 for HIV1 3B expressing wild type reverse transcriptase; format: toxicity; conditions: read-out: Ratio CC50/EC50

COC(=O)c1ccc(NC(=O)CSc2nc3ccccc3n2S(=O)(=O)c2cc(C)cc(C)c2)c(Cl)c1
CC50 at 120 h [1]: 145 µM | Activity [2]: inactive

COC(=O)c1ccc(NC(=O)COc2nc3ccccc3n2S(=O)(=O)c2cc(C)cc(C)c2)c(Cl)c1
IC50 [3]: 5.45 µM | EC50 [4]: 0.79 µM | CC50 at 120 h [1]: 119 µM | selectivity ratio [5]: 151 | Activity [2]: inactive

Cc1cc(C)cc(S(=O)(=O)n2c(SCC(=O)Nc3ccccc3Br)nc3ccccc32)c1
CC50 at 120 h [1]: ≥ 236 µM | selectivity ratio [5]: > 3930 | Activity [2]: inactive

Cc1cc(C)cc(S(=O)(=O)n2c(SCC(=O)Nc3ccc(S(N)(=O)=O)cc3Cl)nc3ccccc32)c1
Activity [2]: inactive

COC(=O)c1ccc(NC(=O)CSc2nc3ccccc3n2S(=O)(=O)c2cc(C)cc(C)c2)cc1
IC50 [3]: 0.088 µM | EC50 [4]: 0.051 µM | CC50 at 120 h [1]: 10 µM | selectivity ratio [5]: 196 | Activity [2]: inactive

Cc1ccc(NC(=O)CSc2nc3ccccc3n2S(=O)(=O)c2cc(C)cc(C)c2)cc1
IC50 [3]: 0.091 µM | EC50 [4]: 0.094 µM | CC50 at 120 h [1]: 2.97 µM | selectivity ratio [5]: 31 | Activity [2]: inactive

Cc1cc(C)cc(S(=O)(=O)n2c(SCC(=O)Nc3ccccc3C(=O)O)nc3ccccc32)c1
IC50 [3]: 21.3 µM | EC50 [4]: 6.83 µM | CC50 at 120 h [1]: 25.2 µM | selectivity ratio [5]: 4 | Activity [2]: inactive

Cc1cc(C)cc(S(=O)(=O)n2c(SCC(=O)Nc3ccc(S(C)(=O)=O)cc3Cl)nc3ccccc32)c1
CC50 at 120 h [1]: ≥ 222 µM | selectivity ratio [5]: 5540

Cc1cc(C)cc(S(=O)(=O)n2c(SCC(=O)Nc3ccc(S(N)(=O)=O)cc3)nc3ccccc32)c1
IC50 [3]: 0.05 µM | EC50 [4]: 0.024 µM | CC50 at 120 h [1]: 30.9 µM | selectivity ratio [5]: 1290 | Activity [2]: inactive

Cc1cc(C)cc(S(=O)(=O)n2c(SCC(=O)Nc3ccccc3Cl)nc3ccccc32)c1
EC50 [4]: 0.88 µM | Activity [2]: inactive

Cc1cc(C)cc(S(=O)(=O)n2c(OCC(=O)Nc3ccccc3Br)nc3ccccc32)c1
IC50 [3]: 15.7 µM | EC50 [4]: 1.55 µM | CC50 at 120 h [1]: > 243 µM | selectivity ratio [5]: > 157 | Activity [2]: inactive

Cc1cc(C)cc(S(=O)(=O)n2c(OCC(=O)Nc3ccc(S(C)(=O)=O)cc3Cl)nc3ccccc32)c1
IC50 [3]: 0.76 µM | EC50 [4]: 0.12 µM | CC50 at 120 h [1]: > 228 µM | selectivity ratio [5]: > 1890 | Activity [2]: inactive

Cc1cc(C)cc(S(=O)(=O)n2c(SCC(=O)Nc3ccccc3C)nc3ccccc32)c1
IC50 [3]: 0.222 µM | EC50 [4]: 0.235 µM | CC50 at 120 h [1]: 6.15 µM | selectivity ratio [5]: 27 | Activity [2]: inactive

Cc1cc(C)cc(S(=O)(=O)n2c(SCC(=O)Nc3ccc(S(C)(=O)=O)cc3)nc3ccccc32)c1
IC50 [3]: 0.047 µM | EC50 [4]: 0.028 µM | CC50 at 120 h [1]: 10.6 µM | selectivity ratio [5]: 385 | Activity [2]: inactive

Cc1cc(C)cc(S(=O)(=O)n2c(SCC(=O)Nc3ccccc3S(N)(=O)=O)nc3ccccc32)c1
IC50 [3]: 7.68 µM | EC50 [4]: 2.72 µM | CC50 at 120 h [1]: 25 µM | selectivity ratio [5]: 9 | Activity [2]: inactive

COC(=O)c1ccccc1NC(=O)CSc1nc2ccccc2n1S(=O)(=O)c1cc(C)cc(C)c1
IC50 [3]: 15.7 µM | EC50 [4]: ≥ 1.06 µM | CC50 at 120 h [1]: 5.22 µM | selectivity ratio [5]: < 5 | Activity [2]: inactive

Cc1cc(C)cc(S(=O)(=O)n2c(OCC(=O)Nc3ccc(S(N)(=O)=O)cc3Cl)nc3ccccc32)c1
IC50 [3]: 5.84 µM | EC50 [4]: 0.25 µM | CC50 at 120 h [1]: > 227 µM | selectivity ratio [5]: > 908 | Activity [2]: inactive

Cc1ccnc2c1NC(=O)c1cccnc1N2C1CC1 [NEVIRAPINE]
CC50 at 120 h [1]: > 15 µM

Cc1cc(C)cc(S(=O)(=O)n2c(SCC(=O)Nc3ccccc3S(C)(=O)=O)nc3ccccc32)c1
IC50 [3]: 60.6 µM | EC50 [4]: ≥ 9.44 µM | CC50 at 120 h [1]: 9.31 µM | selectivity ratio [5]: < 1 | Activity [2]: inactive

Cc1cc(C)cc(S(=O)(=O)n2c(SCC(=O)Nc3ccc(C(=O)O)cc3)nc3ccccc32)c1
IC50 [3]: 0.13 µM | EC50 [4]: 0.2 µM | CC50 at 120 h [1]: 115 µM | selectivity ratio [5]: 577 | Activity [2]: inactive

O=C1Nc2ccc(Cl)cc2[C@@](C#CC2CC2)(C(F)(F)F)O1 [EFAVIRENZ]
CC50 at 120 h [1]: > 6.33 µM

Cc1cc(C)cc(S(=O)(=O)n2c(OCC(=O)Nc3ccccc3Cl)nc3ccccc32)c1
IC50 [3]: 47.3 µM | EC50 [4]: 1.09 µM | CC50 at 120 h [1]: 169 µM | selectivity ratio [5]: 155 | Activity [2]: inactive
